From patent publication US20030032579A1, “Therapeutic use of selective PDE10 inhibitors” (Pfizer Inc., priority 2001, published 2003)
pIC50: −log10 of the molar value. Several values for one entry are separate records, joined by “and”; a condition that tells them apart may be missing. Equal entries are not always repeated.

Experiments:
[1] = system: primary cultures of rat striatal neurons (medium spiny neurons); experiment: cGMP accumulation in SNP-stimulated striatal cultures (Example 2); assay type: cell-based; details: for cGMP EC200: SNP-stimulated rat striatal cultures, mean ± S.E.M.
Protocol: (§1) The striatal cultures were prepared as previously described (Ventimiglia et al., Eur. J. Neurosci. 7: 213-222, 1995). Briefly, striata (caudate nucleus and putamen) are dissected from E17 rats, were dissociated to produce a single cell suspension and plated at a density of 5×10^4 neurons/well in multiwell plates coated with poly-L-ornithine/laminin. The cells were plated in Neurobasal medium with B27 supplements and BDNF (100 ng/mL). Experiments were typically performed after 4 days in vitro. Medium spiny neurons comprise the majority of cells in these cultures (50 to 60%, as confirmed by GABA immunoreactivity).
(§2) The striatal cells were exposed to phosphodiesterase inhibitors and incubated for twenty minutes at 37 degrees Celsius. When measuring cGMP, the neurons were stimulated with sodium nitroprusside, a nitric oxide source for two minutes following the 20-minute incubation with compound. When measuring cAMP, the neurons were stimulated with forskolin, an activator of adenylate cyclase for the duration of the twenty minute compound incubation. The cells were lysed using a 9:1 combination of cAMP SPA direct screening Assay Buffer (0.05M acetate with 0.01% sodium azide) and Buffer A (133 mg/mL dodecyltrimethylammonium bromide) and the lysates were frozen on dry ice. A cGMP [[…]] or cAMP [[…]] scintillation proximity assay (SPA) system (Amersham code RPA 540 and RPA 559, respectively) was used to detect the concentration of the respective cyclic nucleotide in the cell lysate.
(§3) We therefore examined the effects of the compound under conditions in which cAMP or cGMP synthesis was stimulated with forskolin or the NO donor sodium nitroprusside (SNP), respectively.

[2] = system: primary cultures of rat striatal neurons (medium spiny neurons); experiment: cAMP accumulation in forskolin-stimulated striatal cultures (Example 2); assay type: cell-based; details: for cAMP EC200: forskolin-stimulated rat striatal cultures, mean ± S.E.M.; for cAMP/cGMP (ratio of EC200 values): rat striatal cultures, Example 2
Protocol: as §1, §2, §3

medium spiny neurons [3] = experiment: cGMP accumulation in SNAP-stimulated medium spiny neuron culture (Example 5); assay type: cell-based, rat
Protocol: (§4) Medium spiny neuron cultures were prepared as discussed in Example 2 from striata from E17 or E18 rat embryos. The striata were digested with trypsin and the dissociated cells plated on poly-L-omithine/laminin coated plates in Neurobasal medium containing B27 supplement. For assays of cyclic nucleotide formation and CREB phosphorylation, neurons are also supplemented with 50 ng/ml BDNF and used at 6 DIV. At this time, approximately 90% of the cells are of neuronal morphology and 50% stain positively for GABA.
(§5) The PDE inhibitors were differentiated by the potencies with which they potentiated the increase in cAMP versus cGMP (Table 3).

medium spiny neurons [4] = experiment: cAMP accumulation in forskolin-stimulated medium spiny neuron culture (Example 5); assay type: cell-based, rat
Protocol: as §4, §5

medium spiny neurons [5] = experiment: CREB phosphorylation in medium spiny neurons, Western blot; assay type: cell-based, rat; details: Western blotting
Protocol: as §4
cAMP and cGMP activate protein kinases PKA and PKG, respectively. Both kinases are capable of phosphorylating the transcription regulator CREB. We examined the effects of the selective PDE inhibitors in Table 3 on phosphorylation of CREB as a downstream event in the cyclic nucleotide signaling cascade.

medium spiny neurons [6] = experiment: Differentiation of medium spiny neurons to GABA phenotype, Array Scan; assay type: cell-based, rat; details: added at plating, read at 6 DIV
Protocol: The transcriptional events activated following CREB phosphorylation are involved in the survival and differentiation of neurons. We investigated whether the PDE inhibitors in Table 3 effect the survival and differentiation of the medium spiny neurons. These experiments were conducted using a protocol used by Ventimiglia et al. (see Ventimiglia et al., 1995, supra) to assay the effects of BDNF on these processes in medium spiny neurons. Specifically, the PDE inhibitors were added to the medium spiny neuron culture medium at the time of plating, and then at 6 DIV various parameters related to neuronal survival and differentiation were quantified using the Array Scan System from Cellomics, Inc (Pittsburgh, Pa., USA).
Blue-nuclei; Green-neuron; Red-neuron staining positively for GABA.

PDE10 = target: T1, PDE10 (Rattus norvegicus, UniProt Q9QYJ6); experiment: PDE inhibition, SPA cyclic nucleotide hydrolysis assay; assay type: biochemical
T1 construct: made in house; host or cells: SF9 cells
T1 sequence (Q9QYJ6 1-794): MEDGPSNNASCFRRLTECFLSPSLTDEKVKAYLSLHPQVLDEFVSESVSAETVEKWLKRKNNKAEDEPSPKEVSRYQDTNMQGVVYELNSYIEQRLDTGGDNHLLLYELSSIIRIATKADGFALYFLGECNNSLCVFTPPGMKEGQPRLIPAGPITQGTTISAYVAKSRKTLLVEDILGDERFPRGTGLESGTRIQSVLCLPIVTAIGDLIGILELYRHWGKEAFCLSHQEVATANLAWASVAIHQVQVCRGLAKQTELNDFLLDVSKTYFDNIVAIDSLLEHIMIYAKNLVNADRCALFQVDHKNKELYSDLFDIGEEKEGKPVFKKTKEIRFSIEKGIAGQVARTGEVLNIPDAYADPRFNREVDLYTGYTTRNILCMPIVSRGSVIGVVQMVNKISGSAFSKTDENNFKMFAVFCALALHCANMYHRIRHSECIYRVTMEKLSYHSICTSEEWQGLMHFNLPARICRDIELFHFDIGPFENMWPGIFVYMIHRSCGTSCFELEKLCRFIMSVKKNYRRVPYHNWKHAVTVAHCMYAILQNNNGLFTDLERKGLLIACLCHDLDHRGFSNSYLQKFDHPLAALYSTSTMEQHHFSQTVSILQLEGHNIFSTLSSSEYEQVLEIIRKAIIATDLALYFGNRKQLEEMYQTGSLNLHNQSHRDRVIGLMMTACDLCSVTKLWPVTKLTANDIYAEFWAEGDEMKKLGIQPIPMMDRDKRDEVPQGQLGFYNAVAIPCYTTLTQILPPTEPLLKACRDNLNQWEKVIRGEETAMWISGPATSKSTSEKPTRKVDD

PDE1 = system: T2, PDE1; experiment: as above; assay type: biochemical, human; details: substrate at 1/3 Km
T2 construct: other: substrate at 1/3 Km
Text: (§6) PDEs 2, 3 and 5, isozymes, including human PDEs, can, for example, be prepared from corpus cavernosum; PDE1, isozymes including human, from cardiac ventricle; and PDE4, isozymes, including human, from skeletal muscle. PDE6 can be prepared, for example, from canine retina. Description of enzyme preparation from native tissue is described, for example, by Boolell, M. et al., Int. J. Impotence Research 8:7-52, 1996, incorporated herein by reference.
(§7) PDEs 7-11 can similarly be prepared from native tissue. Isozymes from the PDEs 7-9 and 11 families can alternatively be generated from full length human recombinant clones transfected into, for example, SF9 cells as described in Fisher, D. A., et al., Biochem. Biophys. Res. Comm. 246, 570-577, 1998; Soderling, S. H. et al., PNAS 96: 7071-7076, 1999; Fisher, D. A. et al., J. Biol. Chem. 273, 15559-15564, 1998b; and Fawcett, L., et al., PNAS 97: 3702-3707, 2000; respectively. PDE10 can also be generated from a rat recombinant clone transfected into SF9 cells (Fujishige et al., European Journal of Biochemistry, Vol. 266, 1118-1127 (1999)). The enzymes are then prepared by FPLC from the soluble fraction of cell lysates as described for PDE6. The aforementioned references are incorporated in their entireties herein by reference. […]

PDE7 = system: T3, PDE7; experiment: as above; assay type: biochemical, human; details: substrate at 1/3 Km
T3 construct: other: substrate at 1/3 Km
Text: as §6, §7

PDE9 = target: T4, PDE9 (Homo sapiens, UniProt O76083); experiment: as above; assay type: biochemical
T4 construct: made in house; host or cells: SF9 cells
T4 sequence (O76083 whole entry): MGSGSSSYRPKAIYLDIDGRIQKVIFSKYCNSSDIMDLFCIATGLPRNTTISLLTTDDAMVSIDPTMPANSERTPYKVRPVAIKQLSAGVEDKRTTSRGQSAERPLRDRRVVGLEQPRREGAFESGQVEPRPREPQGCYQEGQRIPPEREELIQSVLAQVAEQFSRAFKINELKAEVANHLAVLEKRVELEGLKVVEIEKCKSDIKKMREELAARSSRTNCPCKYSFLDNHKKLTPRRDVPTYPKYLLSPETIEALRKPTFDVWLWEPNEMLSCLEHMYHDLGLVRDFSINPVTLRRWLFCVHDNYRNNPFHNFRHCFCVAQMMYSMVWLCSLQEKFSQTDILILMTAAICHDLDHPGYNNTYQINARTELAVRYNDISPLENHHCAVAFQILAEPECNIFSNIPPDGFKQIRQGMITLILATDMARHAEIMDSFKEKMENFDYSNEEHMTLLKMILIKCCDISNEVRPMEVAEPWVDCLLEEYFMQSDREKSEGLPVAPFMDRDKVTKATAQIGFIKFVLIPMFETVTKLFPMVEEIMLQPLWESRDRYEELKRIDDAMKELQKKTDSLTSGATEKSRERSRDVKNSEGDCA
Protocol: (§8) In one assay, a substance is screened for inhibition of cyclic nucleotide hydrolysis by the PDE10 and the PDEs from the other gene families. The cyclic nucleotide substrate concentration used in the assay of each individual PDE is ⅓ of the Km concentration, allowing for comparisons of IC50 values across the different enzymes. PDE activity is measured using a Scintillation Proximity Assay (SPA)-based method as previously described (Fawcett et al., 2000). The effect of PDE inhibitors is determined by assaying a fixed amount of enzyme (PDEs 1-11) in the presence of varying substance concentrations and low substrate, such that the IC50 approximates the Ki (cGMP or cAMP in a 3:1 ratio unlabelled to [^3H]-labeled at a concentration of ⅓ Km). The final assay volume is made up to 100 μl with assay buffer [20 mM Tris-HCI pH 7.4, 5 mM MgCl2, 1 mg/ml bovine serum albumin]. […] Plates are re-sealed and shaken for 20 min, after which the beads were allowed to settle for 30 min in the dark and then counted on a TopCount plate reader (Packard, Meriden, Conn.). […]
(§9) PDE activity was measured using the assay with yttrium silicate SPA beads described above in the Detailed Description section.

PDE11 = target: T5, PDE11 (Homo sapiens, UniProt Q9HCR9); experiment: as above; assay type: biochemical
T5 construct: made in house; host or cells: SF9 cells
T5 sequence (Q9HCR9 445-933): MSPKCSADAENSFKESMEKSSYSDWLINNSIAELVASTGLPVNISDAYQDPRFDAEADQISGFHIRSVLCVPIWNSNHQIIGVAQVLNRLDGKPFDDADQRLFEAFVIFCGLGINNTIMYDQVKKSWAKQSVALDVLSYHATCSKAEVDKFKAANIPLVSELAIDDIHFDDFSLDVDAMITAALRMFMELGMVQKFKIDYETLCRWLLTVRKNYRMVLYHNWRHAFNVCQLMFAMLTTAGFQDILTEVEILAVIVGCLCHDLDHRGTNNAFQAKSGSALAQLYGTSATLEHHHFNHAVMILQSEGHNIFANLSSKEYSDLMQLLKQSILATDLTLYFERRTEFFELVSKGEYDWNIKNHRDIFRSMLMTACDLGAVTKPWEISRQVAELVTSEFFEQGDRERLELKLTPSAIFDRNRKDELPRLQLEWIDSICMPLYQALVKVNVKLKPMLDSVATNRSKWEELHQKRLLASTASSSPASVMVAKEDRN
Protocol: as §8, §9

male CD rats = experiment: Catalepsy (bar test), alone and with haloperidol; assay type: in vivo, rat; details: s.c.; for catalepsy when administered alone: 30 min after dosing, papaverine up to 32 mg/kg
Text: This animal model is used to analyze the effects of compounds on basal ganglia output. […] For some experiments, this was immediately followed by haloperidol. Thirty minutes after drug administration(s), the degree of catalepsy was quantified by placing the animals forepaws on an elevated (10 cm) bar (1 cm diameter) and determining the latency to remove both forepaws from the bar with a latency cutoff of 30 sec. Latencies were ranked within each treatment group for comparison by a Kruskall-Wallace analysis of variance. Post hoc analysis was by the Mann Whitney U test.

Sprague-Dawley rats = experiment: Locomotor activity (shuttle box crossovers), PCP- or amphetamine-stimulated; assay type: in vivo, rat
Protocol: Adult, male, Sprague-Dawley rats (250-300 g) were obtained from Charles River (Wilmington, Mass.). Locomotor activity was assessed using crossover behavior in commercially available shuttle boxes (Coulbourn Instruments, Allentown, Pa.). Data was collected in 5 minute intervals for 1 hour after drug administration. Animals received either vehicle (5% DMSO, 5% Emulphor, 90% Saline) phencyclidine (PCP, Sigma Chem. Co.) or amphetamine Sulfate (RBI) followed immediately by either vehicle or test compound. Statistical analysis was performed using the Student's t-test.

[7] = system: primary cultures of rat striatal neurons (medium spiny neurons); experiment: cGMP accumulation in SNP-stimulated striatal cultures (Example 2); assay type: cell-based; details: compound alone, no stimulus
[8] = system: primary cultures of rat striatal neurons (medium spiny neurons); experiment: cAMP accumulation in forskolin-stimulated striatal cultures (Example 2); assay type: cell-based; details: compound alone, no stimulus

COc1ccc(C2CNC(=O)C2)cc1OC1CCCC1 (stereo not drawn) [Rolipram]
cGMP EC200 [1]: 29.2 ± 10.3 (3) μM
fold higher concentration to double cGMP accumulation than cAMP ([1]; relative to cAMP EC200): 10 fold
cAMP EC200 [2]: 2.5 ± 2.0 (3) μM
cAMP EC200 ([2]; listed as rolipram): 2.5 µM
cAMP/cGMP (ratio of EC200 values) [2]: 0.09
effect on accumulation of cGMP stimulated with SNAP (medium spiny neurons [3]; FIG. 4): potentiate the increase
cGMP EC200 (medium spiny neurons [3]; SNAP-stimulated medium spiny neurons, 6 DIV): 71.1 ± 9.9 µM
change in cGMP level in the absence of a stimulus (medium spiny neurons [3]; no stimulus): no detectable change
effect on accumulation of cAMP stimulated with forskolin (medium spiny neurons [4]; FIG. 3): potentiate the increase
cAMP EC200 (medium spiny neurons [4]; forskolin-stimulated medium spiny neurons, 6 DIV): 2.0 ± 0.2 µM
cAMP/cGMP (ratio of EC200 values) (medium spiny neurons [4]; medium spiny neurons, Example 5): 0.03
change in cAMP level in the absence of a stimulus (medium spiny neurons [4]; no stimulus): no detectable change
rank order of efficacy in increasing CREB phosphorylation (medium spiny neurons [5]): forskolin>selective PDE 10 inhibitor>rolipram
CREB phosphorylation (medium spiny neurons [5]; compound without other stimuli): increased CREB phosphorylation
number of GABAergic neurons (medium spiny neurons [6]): no effect

COc1ccc(Cc2nccc3cc(OC)c(OC)cc23)cc1OC [Papaverine, 1-[(3,4-dimethoxyphenyl)methyl]-6,7-dimethoxyisoquinoline]
pIC50 (PDE10): 7.74
pIC50 (PDE1): 4.43
pIC50 (PDE7): 4.57
pIC50 (PDE9): 3.40
pIC50 (PDE11): 4.96
cGMP EC200 [1]: 11.7 μM and 11.7 ± 8.2 (4) μM
maximal elevation of cGMP over cultures stimulated with SNP alone ([1]; at 100 μM): 5 fold
cAMP EC200 [2]: 38.3 ± 11.4 (4) μM
catalepsy when administered alone (male CD rats): did not alone induce catalepsy
minimum effective dose for potentiation of haloperidol-induced catalepsy (male CD rats; haloperidol […]): 3.2 mg/kg
locomotor activity, compound alone (Sprague-Dawley rats; 32 mg/kg, i.p., 60 min): small decrease in locomotor activity
amphetamine stimulated locomotion, second experiment (Sprague-Dawley rats; amphetamine 1 mg/kg s.c., 30 minutes): effectively inhibited
locomotor activity stimulated by phencyclidine (Sprague-Dawley rats; papaverine 32 mg/kg i.p., PCP […] i.p., 60 min): significant reduction in the locomotor activity
locomotor activity stimulated by amphetamine (Sprague-Dawley rats; papaverine 32 mg/kg i.p., amphetamine 1 mg/kg i.p., 60 min): without effecting
change in basal level of cGMP [7]: did not produce measurable changes
change in basal level of cAMP [8]: did not produce measurable changes

O=C(CCCN1CCC(O)(c2ccc(Cl)cc2)CC1)c1ccc(F)cc1 [haloperidol]
maximally effective dose for catalepsy (male CD rats): 1 mg/kg
catalepsy when administered alone (male CD rats): robust catalepsy

CC(C)Cn1c(=O)n(C)c(=O)c2[nH]cnc21 [IBMX]
cGMP EC200 [1]: 19 μM and 19.5 (1) μM
cAMP EC200 [2]: 30 μM and 30.2 (2) μM
cAMP/cGMP (ratio of EC200 values) [2]: 1.5

CCCOc1ccccc1-c1nc2nn[nH]c2c(=O)[nH]1 [Zaprinast]
cGMP EC200 [1]: 98.3 ± 10.3 (3) μM
cAMP EC200 [2]: >100 (3) μM
cAMP/cGMP (ratio of EC200 values) [2]: 1
